Here are results for ten compounds from patent US20240025884A1 (Dong-A ST Co., Ltd., priority 2022, published 2024).

The IC50 is the concentration that inhibits the measured activity by half.

Sequence of GCN2 (Q9P2K8 whole entry): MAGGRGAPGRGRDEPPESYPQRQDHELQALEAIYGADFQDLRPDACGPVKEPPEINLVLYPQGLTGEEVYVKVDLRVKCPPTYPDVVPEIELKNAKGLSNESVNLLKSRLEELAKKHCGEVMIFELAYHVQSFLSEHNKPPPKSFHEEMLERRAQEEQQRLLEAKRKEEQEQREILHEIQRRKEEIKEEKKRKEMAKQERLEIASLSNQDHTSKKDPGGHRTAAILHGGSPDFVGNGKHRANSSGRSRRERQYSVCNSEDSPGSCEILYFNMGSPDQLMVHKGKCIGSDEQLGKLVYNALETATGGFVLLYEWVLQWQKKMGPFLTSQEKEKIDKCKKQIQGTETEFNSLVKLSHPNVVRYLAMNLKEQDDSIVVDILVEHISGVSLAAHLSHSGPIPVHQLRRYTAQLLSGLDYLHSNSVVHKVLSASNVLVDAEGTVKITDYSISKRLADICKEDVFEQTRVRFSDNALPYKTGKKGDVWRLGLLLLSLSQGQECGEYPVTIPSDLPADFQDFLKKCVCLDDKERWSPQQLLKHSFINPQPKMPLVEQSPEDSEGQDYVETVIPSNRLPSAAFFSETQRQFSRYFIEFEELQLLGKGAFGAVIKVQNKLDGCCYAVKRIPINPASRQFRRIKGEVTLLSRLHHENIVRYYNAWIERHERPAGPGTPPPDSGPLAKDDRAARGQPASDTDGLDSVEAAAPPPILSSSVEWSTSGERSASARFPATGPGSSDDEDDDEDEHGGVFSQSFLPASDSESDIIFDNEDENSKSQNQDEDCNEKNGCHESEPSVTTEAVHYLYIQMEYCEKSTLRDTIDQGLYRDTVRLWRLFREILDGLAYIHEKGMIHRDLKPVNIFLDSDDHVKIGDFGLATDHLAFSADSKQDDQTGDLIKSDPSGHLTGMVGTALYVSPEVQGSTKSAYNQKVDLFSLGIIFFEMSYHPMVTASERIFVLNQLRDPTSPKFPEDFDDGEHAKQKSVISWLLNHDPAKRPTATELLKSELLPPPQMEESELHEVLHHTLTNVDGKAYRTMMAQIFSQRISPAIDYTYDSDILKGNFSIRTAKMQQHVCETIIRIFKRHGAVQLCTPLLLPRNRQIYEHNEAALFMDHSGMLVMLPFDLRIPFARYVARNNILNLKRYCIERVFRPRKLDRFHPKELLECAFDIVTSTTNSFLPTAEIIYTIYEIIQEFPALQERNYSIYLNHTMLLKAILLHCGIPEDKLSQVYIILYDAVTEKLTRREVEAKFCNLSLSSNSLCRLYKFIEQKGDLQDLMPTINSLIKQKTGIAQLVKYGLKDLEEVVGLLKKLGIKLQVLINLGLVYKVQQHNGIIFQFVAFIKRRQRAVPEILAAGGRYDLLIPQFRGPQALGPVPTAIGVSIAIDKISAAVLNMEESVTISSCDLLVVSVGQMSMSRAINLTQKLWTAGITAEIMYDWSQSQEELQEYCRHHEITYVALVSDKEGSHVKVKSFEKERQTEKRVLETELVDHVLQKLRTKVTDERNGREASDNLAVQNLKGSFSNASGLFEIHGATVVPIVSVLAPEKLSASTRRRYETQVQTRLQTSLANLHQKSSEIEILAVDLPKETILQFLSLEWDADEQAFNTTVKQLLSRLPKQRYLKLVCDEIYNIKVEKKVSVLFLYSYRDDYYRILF

The target in the assay is GCN2 (Homo sapiens (Human), UniProt Q9P2K8). Put plainly: GCN2 Biochemical Assay (TR-FRET, GFP-eIF2S1 substrate phosphorylation). Conditions: read-out: IC50 (GCN2 Inhibitory Activity). As to the method:
Experimental Example 1: GCN2 Biochemical Assay
An inhibitory effect of the inventive compound on GCN2 was identified as follows.
384-well (Greiner #784075) (or 1536-well [Greiner #782075]) plates containing 60 nl (or 20 nl for 1536-well) of compound in 100% DMSO (10 concentrations serially diluted 3.16-fold) were prepared. Two copies of plates were used—one for the GCN2 assay and a second for an artifact plate. Working reagents were prepared as follows—reaction buffer: Tris pH 7.5 20 mM, MgCl2 5 mM, DTT 1 mM, Brij-35 0.005%, EGTA 0.5 mM in water; 2× enzyme solution: GCN2 (produced in-house) 1.6 nM in reaction buffer; 2× substrate solution: GFP-eIFS1 (Thermo Fisher Scientific, PV4809) 50 nM, ATP 0.2 mM, tRNA 0.4 mg/ml in reaction buffer; p-GFP-eIF2S1 (artifact) solution: p-GFP-eIFS1 (produced by incubation of 100 nM GFP-eIF2S1 in reaction buffer with 100 uM ATP and 1 nM PERK KD enzyme for 3 hr at room temperature) 2 nM in reaction buffer; 3× stop/antibody solution: p-GFP-EIF2S1 Th-Ab (Thermo Fisher Scientific, PV4816) 6 nM, AZ13933939 3 uM, BSA 3% in reaction buffer. Reagents were loaded onto a liquid dispenser (Certus FLEX, Trajan Scientific and Medical), and 3 ul (1 ul for 1536-well) of 2× enzyme solution, followed by 3 ul (1 ul for 1536-well) of 2× substrate solution was added to the plates. When small numbers of plates were processed, the enzyme solution was added first to all plates, then the valve used for the substrate solution was primed immediately prior to use. Plates were tapped or spun 1 min/1K/RT to ensure proper mixing, followed by incubation at room temperature for 70 mins, covered/stacked in the dark. For the artifact plate, 6 ul of p-GFP-eIF2S1 solution was added prior to adding the stop/antibody solution. 3 ul (1 ul for 1536-well) of 3× stop/antibody solution was added to the plates, followed by a spin-down for 1 min/1K/RT, and incubation for 2-3 hr, sealed or covered with lids in the dark at room temperature. Plates were read on a plate reader (PHERAstar FSX, BMF Labtech) at Ex 340/Em 490/Em 520 nm.
Regarding `Cc1cnc(Nc2cc(C)n(C)n2)nc1-c1c[nH]c2c(NC(=O)CN3CC=C(c4cnn(C)c4)CC3)cccc12` [Example 35, N-(3-(2-((1,5-dimethyl-1H-pyrazol-3-yl)amino)-5-methylpyrimidin-4-yl)-1H-indol-7-yl)-2-(4-(1-methyl-1H-pyrazol-4-yl)-3,6-dihydropyridin-1(2H)-yl)acetamide], the IC50 lay within 100 to 1000 nM. With `Cc1cnc(Nc2cc(C)n(C)n2)nc1-c1c[nH]c2c(N3Cc4ccc(Br)cc4C3=O)cccc12` [Example 284, 6-bromo-2-(3-(2-((1,5-dimethyl-1H-pyrazol-3-yl)amino)-5-methylpyrimidin-4-yl)-1H-indol-7-yl)isoindolin-1-one] the figure was 10 to 100 nM. Take `Cc1cnc(Nc2cc(C)n(C)n2)nc1-c1c[nH]c2c(NC(=O)CN3CC[C@H](Nc4ccncn4)C3)cccc12` [Example 47, (S)-N-(3-(2-((1,5-dimethyl-1H-pyrazol-3-yl)amino)-5-methylpyrimidin-4-yl)-1H-indol-7-yl)-2-(3-(pyrimidin-4-ylamino)pyrrolidin-1-yl)acetamide]: the concentration for half-maximal inhibition (IC50) lay within 10 to 100 nM. Then `CC1=CCC(C(=O)Nc2cccc3c2CN(c2cccc4c(-c5nc(Nc6cc(C)n(C)n6)ncc5C)c[nH]c24)C3=O)CC1` (stereo not shown) [Example 330, N-(2-(3-(2-((1,5-dimethyl-1H-pyrazol-3-yl)amino)-5-methylpyrimidin-4-yl)-1H-indol-7-yl)-1-oxoisoindolin-4-yl)-4-methylcyclohex-3-ene-1-carboxamide], with 10 to 100 nM; and `Cc1cnc(Nc2cc(C)n(C)n2)nc1-c1c[nH]c2c(NC(=O)CN3CC[C@H](Oc4nccc(C(N)=O)n4)C3)cccc12` [Example 129, (S)-2-((1-(2-((3-(2-((1,5-dimethyl-1H-pyrazol-3-yl)amino)-5-methylpyrimidin-4-yl)-1H-indol-7-yl)amino)-2-oxoethyl)pyrrolidin-3-yl)oxy)pyrimidine-4-carboxamide], with 10 to 100 nM; and `CCN(C)c1cc(O[C@H]2CCN(CC(=O)Nc3cccc4c(-c5nc(Nc6cc(C)n(C)n6)ncc5C)c[nH]c34)C2)ncn1` [Example 154, (S)-N-(3-(2-((1,5-dimethyl-1H-pyrazol-3-yl)amino)-5-methylpyrimidin-4-yl)-1H-indol-7-yl)-2-(3-((6-(ethyl(methyl)amino)pyrimidin-4-yl)oxy)pyrrolidin-1-yl)acetamide], with below 10 nM. On to `Cc1cnc(Nc2cc(C)n(C)n2)nc1-c1c[nH]c2c(NC(=O)CN3CC[C@H](Oc4ccc(C(C)(C)c5ccccc5)cc4)C3)cccc12` [Example 101, (S)-N-(3-(2-((1,5-dimethyl-1H-pyrazol-3-yl)amino)-5-methylpyrimidin-4-yl)-1H-indol-7-yl)-2-(3-(4-(2-phenylpropan-2-yl)phenoxy)pyrrolidin-1-yl)acetamide], for which the IC50 was above 1000 nM. For the compound `Cc1cnc(Nc2cc(C)n(C)n2)nc1-c1c[nH]c2c(NC(=O)CN3CC[C@H](Oc4cc(N5CC[C@@H](O)C5)ncn4)C3)cccc12` [Example 160, N-(3-(2-((1,5-dimethyl-1H-pyrazol-3-yl)amino)-5-methylpyrimidin-4-yl)-1H-indol-7-yl)-2-((S)-3-((6-((R)-3-hydroxypyrrolidin-1-yl)pyrimidin-4-yl)oxy)pyrrolidin-1-yl)acetamide], the IC50 is below 10 nM. In the case of `COCCNC(=O)/C=C/c1cccc2c1CN(c1cccc3c(-c4nc(Nc5cc(C)n(C)n5)ncc4C)c[nH]c13)C2=O` [Example 374, (E)-3-(2-(3-(2-((1,5-dimethyl-1H-pyrazol-3-yl)amino)-5-methylpyrimidin-4-yl)-1H-indol-7-yl)-1-oxoisoindolin-4-yl)-N-(2-methoxyethyl)acrylamide], the IC50 is below 10 nM. For `Cc1cnc(Nc2cc(C)n(C)n2)nc1-c1c[nH]c2c(NC(=O)CN3CC[C@H](Oc4ccccn4)C3)cccc12` [Example 73, (S)-N-(3-(2-((1,5-dimethyl-1H-pyrazol-3-yl)amino)-5-methylpyrimidin-4-yl)-1H-indol-7-yl)-2-(3-(pyridin-2-yloxy)pyrrolidin-1-yl)acetamide], the IC50 was 10 to 100 nM.
